# Assay results taken from PubChem BioAssay (NCI).
# Several values for one entry are separate records, joined by “and”; a condition that tells them apart may be missing. Equal values may be shown once.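 Interpolation was linear, between the two tested concentrations surrounding the appropriate level; five concentrations were tested over 48 hours in 96-well plates. The concentration for 50% growth inhibition is given as GI50. TGI marks complete inhibition of growth.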
# Key:
# Assay in all cases: NCI tumour cell line growth inhibition, 48 h
# 786-0 renal = tested on: 786-0 renal
# A498 renal = tested on: A498 renal
# A549 NSCLC = tested on: A549 NSCLC
# ACHN renal = tested on: ACHN renal
# BT-549 breast = tested on: BT-549 breast
# CAKI-1 renal = tested on: CAKI-1 renal
# CCRF-CEM leukemia = tested on: CCRF-CEM leukemia
# COLO 205 colon = tested on: COLO 205 colon
# DU-145 prostate = tested on: DU-145 prostate
# EKVX NSCLC = tested on: EKVX NSCLC
# HCC-2998 colon = tested on: HCC-2998 colon
# HCT-116 colon = tested on: HCT-116 colon
# HCT-15 colon = tested on: HCT-15 colon
# HL-60(TB) leukemia = tested on: HL-60(TB) leukemia
# HOP-62 NSCLC = tested on: HOP-62 NSCLC
# HS 578T breast = tested on: HS 578T breast
# HT29 colon = tested on: HT29 colon
# IGROV1 ovarian = tested on: IGROV1 ovarian
# K-562 leukemia = tested on: K-562 leukemia
# KM12 colon = tested on: KM12 colon
# LOX IMVI melanoma = tested on: LOX IMVI melanoma
# M14 melanoma = tested on: M14 melanoma
# MALME-3M melanoma = tested on: MALME-3M melanoma
# MCF7 breast = tested on: MCF7 breast
# MDA-MB-231 breast = tested on: MDA-MB-231 breast
# MDA-MB-435 = tested on: MDA-MB-435
# MDA-N = tested on: MDA-N
# MOLT-4 leukemia = tested on: MOLT-4 leukemia
# NCI-H226 lung = tested on: NCI-H226 lung
# NCI-H23 lung = tested on: NCI-H23 lung
# NCI-H460 lung = tested on: NCI-H460 lung
# NCI-H522 lung = tested on: NCI-H522 lung
# NCI/ADR-RES ovarian = tested on: NCI/ADR-RES ovarian
# OVCAR-3 ovarian = tested on: OVCAR-3 ovarian
# OVCAR-4 ovarian = tested on: OVCAR-4 ovarian
# OVCAR-5 ovarian = tested on: OVCAR-5 ovarian
# OVCAR-8 ovarian = tested on: OVCAR-8 ovarian
# PC-3 prostate = tested on: PC-3 prostate
# RPMI-8226 leukemia = tested on: RPMI-8226 leukemia
# RXF 393 renal = tested on: RXF 393 renal
# SF-268 CNS = tested on: SF-268 CNS
# SF-295 CNS = tested on: SF-295 CNS
# SF-539 CNS = tested on: SF-539 CNS
# SK-MEL-2 melanoma = tested on: SK-MEL-2 melanoma
# SK-MEL-28 melanoma = tested on: SK-MEL-28 melanoma
# SK-MEL-5 melanoma = tested on: SK-MEL-5 melanoma
# SK-OV-3 ovarian = tested on: SK-OV-3 ovarian
# SN12C renal = tested on: SN12C renal
# SNB-19 CNS = tested on: SNB-19 CNS
# SNB-75 CNS = tested on: SNB-75 CNS
# SR leukemia = tested on: SR leukemia
# SW-620 colon = tested on: SW-620 colon
# T-47D breast = tested on: T-47D breast
# TK-10 renal = tested on: TK-10 renal
# U251 CNS = tested on: U251 CNS
# UACC-257 melanoma = tested on: UACC-257 melanoma
# UACC-62 melanoma = tested on: UACC-62 melanoma
# UO-31 renal = tested on: UO-31 renal
compound,measurement,setting,value
COc1cc(/C=C/C(=O)CC(=O)/C=C/c2cc(OC)c(O)c(OC)c2)cc(OC)c1O,GI50,786-0 renal,38.6 µM
same,TGI,786-0 renal,25 µM and > 100 µM
same,GI50,A498 renal,15.6 µM
same,TGI,A498 renal,12.2 µM and 37.5 µM
same,GI50,A549 NSCLC,16.6 µM
same,TGI,A549 NSCLC,25 µM and > 100 µM
same,GI50,ACHN renal,42.2 µM
same,TGI,ACHN renal,25 µM and > 100 µM
same,GI50,BT-549 breast,13.4 µM
same,TGI,BT-549 breast,25 µM and 34.4 µM
same,GI50,CAKI-1 renal,21.1 µM
same,TGI,CAKI-1 renal,25 µM and > 100 µM
same,GI50,CCRF-CEM leukemia,4.01 µM
same,TGI,CCRF-CEM leukemia,> 25 µM and 64.8 µM
same,GI50,COLO 205 colon,19.3 µM
same,TGI,COLO 205 colon,25 µM and 40.2 µM
same,GI50,DU-145 prostate,20.7 µM
same,TGI,DU-145 prostate,24.8 µM and > 100 µM
same,GI50,EKVX NSCLC,18.7 µM
same,TGI,EKVX NSCLC,25 µM and 71.2 µM
same,TGI,HCC-2998 colon,11.6 µM
same,GI50,HCT-116 colon,17.2 µM
same,TGI,HCT-116 colon,13.3 µM and > 100 µM
same,TGI,HCT-15 colon,> 25 µM and 90.4 µM
same,TGI,HL-60(TB) leukemia,25 µM and 42.6 µM
same,GI50,HOP-62 NSCLC,19.6 µM
same,TGI,HOP-62 NSCLC,25 µM and > 100 µM
same,GI50,HS 578T breast,5.73 µM
same,TGI,HS 578T breast,18 µM and 53.8 µM
same,GI50,HT29 colon,26.3 µM
same,TGI,HT29 colon,25 µM and > 100 µM
same,GI50,IGROV1 ovarian,11 µM
same,TGI,IGROV1 ovarian,10.8 µM and 32.2 µM
same,TGI,K-562 leukemia,25 µM and > 100 µM
same,GI50,KM12 colon,13.5 µM
same,TGI,KM12 colon,15.4 µM and 31.1 µM
same,GI50,LOX IMVI melanoma,15.8 µM
same,TGI,LOX IMVI melanoma,25 µM and 66.3 µM
same,GI50,M14 melanoma,10.4 µM
same,TGI,M14 melanoma,25 µM and 28 µM
same,GI50,MALME-3M melanoma,14.8 µM
same,TGI,MALME-3M melanoma,25 µM and 30.6 µM
same,GI50,MCF7 breast,19.6 µM
same,TGI,MCF7 breast,25 µM and > 100 µM
same,GI50,MDA-MB-231 breast,9.37 µM
same,TGI,MDA-MB-231 breast,25 µM and 32.6 µM
same,TGI,MDA-MB-435,16.3 µM and 24 µM
same,GI50,MDA-N,16.9 µM
same,TGI,MDA-N,11.2 µM and > 100 µM
same,GI50,MOLT-4 leukemia,5.1 µM
same,TGI,MOLT-4 leukemia,25 µM and 84.4 µM
same,GI50,NCI-H226 lung,53.6 µM
same,TGI,NCI-H226 lung,25 µM and > 100 µM
same,GI50,NCI-H23 lung,12.7 µM
same,TGI,NCI-H23 lung,25 µM and 35.7 µM
same,TGI,NCI-H460 lung,> 100 µM
same,GI50,NCI-H522 lung,3.75 µM
same,TGI,NCI-H522 lung,15 µM and 14 µM
same,GI50,NCI/ADR-RES ovarian,> 100 µM
same,TGI,NCI/ADR-RES ovarian,> 100 µM
same,GI50,OVCAR-3 ovarian,18.6 µM
same,TGI,OVCAR-3 ovarian,17.3 µM and > 100 µM
same,GI50,OVCAR-4 ovarian,29.5 µM
same,TGI,OVCAR-4 ovarian,25 µM and > 100 µM
same,GI50,OVCAR-5 ovarian,27.1 µM
same,TGI,OVCAR-5 ovarian,25 µM and 83.5 µM
same,GI50,OVCAR-8 ovarian,18 µM
same,TGI,OVCAR-8 ovarian,25 µM and 61.3 µM
same,TGI,PC-3 prostate,25 µM and 37.8 µM
same,TGI,RPMI-8226 leukemia,30.8 µM
same,GI50,RXF 393 renal,2.63 µM
same,TGI,RXF 393 renal,7.3 µM and 16.1 µM
same,GI50,SF-268 CNS,9.06 µM
same,TGI,SF-268 CNS,15.4 µM and 41.2 µM
same,GI50,SF-295 CNS,32.3 µM
same,TGI,SF-295 CNS,25 µM and > 100 µM
same,GI50,SF-539 CNS,44.2 µM
same,TGI,SF-539 CNS,25 µM and > 100 µM
same,GI50,SK-MEL-2 melanoma,4.24 µM
same,TGI,SK-MEL-2 melanoma,16.3 µM and 16.6 µM
same,GI50,SK-MEL-28 melanoma,14.1 µM
same,TGI,SK-MEL-28 melanoma,21.5 µM and 57.8 µM
same,GI50,SK-MEL-5 melanoma,13.2 µM
same,TGI,SK-MEL-5 melanoma,25 µM and 36.4 µM
same,GI50,SK-OV-3 ovarian,32 µM
same,TGI,SK-OV-3 ovarian,24 µM and > 100 µM
same,GI50,SN12C renal,57.3 µM
same,TGI,SN12C renal,23.7 µM and > 100 µM
same,TGI,SNB-19 CNS,25 µM and > 100 µM
same,TGI,SNB-75 CNS,61.4 µM
same,GI50,SR leukemia,7.56 µM
same,TGI,SR leukemia,25 µM and > 100 µM
same,TGI,SW-620 colon,> 100 µM
same,TGI,T-47D breast,21.5 µM
same,GI50,TK-10 renal,34.2 µM
same,TGI,TK-10 renal,25 µM and > 100 µM
same,TGI,U251 CNS,25 µM and 36.1 µM
same,GI50,UACC-257 melanoma,23.5 µM
same,TGI,UACC-257 melanoma,25 µM and > 100 µM
same,GI50,UACC-62 melanoma,5.51 µM
same,GI50,UO-31 renal,41.2 µM
same,TGI,UO-31 renal,> 100 µM
